Legend:
Serratia marcescens TN24 = experiment: Minimal inhibitory concentration, agar serial dilution; type: cell-based; details: TSA, inoculum 10^7 /ml
Excerpt: (§1) (a) Minimal inhibitory concentrations (Table 1 and 2)
(§2) Method: Agar serial dilution

Klebsiella pneumoniae DT = experiment: as above; type: cell-based; details: TSA, inoculum 10^7 /ml
Excerpt: as §1, §2

Proteus rettgeri TN338 = experiment: as above; type: cell-based; details: TSA, inoculum 10^7 /ml
Excerpt: as §1, §2

[1] = tested on: Citrobacter freundii GN1706; experiment: as above; type: cell-based; details: TSA, inoculum 10^7 /ml
Excerpt: as §1, §2

Proteus mirabilis GN4359 = experiment: as above; type: cell-based; details: TSA, inoculum 10^7 /ml
Excerpt: as §1, §2

Proteus vulgaris GN4413 = experiment: as above; type: cell-based; details: TSA, inoculum 10^7 /ml
Excerpt: as §1, §2

Proteus rettgeri GN4733 = experiment: as above; type: cell-based; details: TSA, inoculum 10^7 /ml
Excerpt: as §1, §2

[2] = tested on: Escherichia coli NIHJ JC-2; experiment: as above; type: cell-based; details: TSA, inoculum 10^7 /ml
Excerpt: as §1, §2

[3] = tested on: Citrobacter freundii GN99; experiment: as above; type: cell-based; details: TSA, inoculum 10^7 /ml
Excerpt: as §1, §2

Proteus morganii IFO3168 = experiment: as above; type: cell-based; details: TSA, inoculum 10^7 /ml
Excerpt: as §1, §2

Escherichia coli 0-111 [4] = experiment: as above; type: cell-based; details: TSA, inoculum 10^7 /ml
Excerpt: as §1, §2

[5] = tested on: Staphylococcus aureus 209P; experiment: as above; type: cell-based; details: TSA, inoculum 10^7 /ml
Excerpt: as §1, §2

[6] = tested on: Proteus vulgaris IFO 3988; experiment: as above; type: cell-based; details: TSA, inoculum 10^7 /ml
Excerpt: as §1, §2

[7] = tested on: Staphylococcus aureus 1840; experiment: as above; type: cell-based; details: TSA, inoculum 10^7 /ml
Excerpt: as §1, §2

[8] = tested on: Serratia marcescens IFO 12648; experiment: as above; type: cell-based; details: TSA, inoculum 10^7 /ml
Excerpt: as §1, §2

Escherichia coli T-7 = experiment: as above; type: cell-based; details: TSA, inoculum 10^7 /ml
Excerpt: as §1, §2

[9] = tested on: Klebsiella pneumoniae GN-3835; experiment: as above; type: cell-based; details: TSA, inoculum 10^7 /ml
Excerpt: as §1, §2

[10] = tested on: Enterobacter cloacae TN1282; experiment: as above; type: cell-based; details: TSA, inoculum 10^7 /ml
Excerpt: as §1, §2

Escherichia coli 0-111 [11] = experiment: Therapeutic effects on infected mice; type: in vivo, Male mouse, ICR/SLC; details: Escherichia coli, 0111, sc, 168 h, s.c. single dose immediately after intraperitoneal infection, 7 days observation
Experimental: The therapeutic efficacies of several representative compounds [I] of this invention and of cephaloridine on infected mice are also set forth in the tables.
(b) Therapeutic effects on infected mice (Table 3 and Table 4)
Test animal: Male mouse, ICR/SLC
A group of five animals was employed per drug.
Route of infection: Intraperitoneal
Infectious bacteria: Escherichia coli 0-111
Period of observation: 7 days
Method of administration: Test compound (1 mg, 10 mg, 100 mg or 200 mg) was dissolved in sterile saline solution (100 ml) and 0.2 ml of the solution was administered subcutaneously as a single dose immediately after infection. Two fold dilutions of each solution were administered to five groups of 5 mice each.

SMILES	Minimal inhibitory concentration (MIC) (Serratia marcescens TN24)	Minimal inhibitory concentration (MIC) (Klebsiella pneumoniae DT)	Minimal inhibitory concentration (MIC) (Proteus rettgeri TN338)	Minimal inhibitory concentration (MIC) [1]	Minimal inhibitory concentration (MIC) (Proteus mirabilis GN4359)	Minimal inhibitory concentration (MIC) (Proteus vulgaris GN4413)	Minimal inhibitory concentration (MIC) (Proteus rettgeri GN4733)	Minimal inhibitory concentration (MIC) [2]	Minimal inhibitory concentration (MIC) [3]	Minimal inhibitory concentration (MIC) (Proteus morganii IFO3168)	Minimal inhibitory concentration (MIC) (Escherichia coli 0-111 [4])	Minimal inhibitory concentration (MIC) [5]	Minimal inhibitory concentration (MIC) [6]	Minimal inhibitory concentration (MIC) [7]	Minimal inhibitory concentration (MIC) [8]	Minimal inhibitory concentration (MIC) (Escherichia coli T-7)	Minimal inhibitory concentration (MIC) [9]	Minimal inhibitory concentration (MIC) [10]	ED50 (Escherichia coli 0-111 [11]; Table 3) [mg/kg]	ED50 (Escherichia coli 0-111 [11]; Table 4) [mg/kg]
Cc1nnc(SCC2=C(C(=O)[O-])N3C(=O)C(NC(=O)Cn4cnnn4)[C@H]3SC2)s1.[Na+] (stereo partly drawn) [Cefazolin, sodium 7-(1H-tetrazol-1-yl)acetamido-3-(2-methyl-1,3,4-thiadiazol-5-yl)thiomethyl-3-cephem-4-carboxylate, reference compound]	> 100	1.56	≤ 0.2	> 100	6.25	> 100	100	1.56	12.5	100	1.56	0.39	3.13	1.56	> 100	50	6.25			
O=C(Cc1cccs1)N[C@@H]1C(=O)N2C(C(=O)[O-])=C(C[n+]3ccccc3)CS[C@H]12 [Cephaloridine, 7-(2-thienylacetamido)-3-(1-pyridyl)methyl-3-cephem-4-carboxylic acid betaine, reference compound]	> 100	1.56	1.56	> 100	6.25	> 100	> 100	3.13	50	> 100	1.56	0.05	6.25	0.39	> 100	> 100	12.5	> 100	2.6	1.81
CC(=O)OCC1=C(C(=O)[O-])N2C(=O)C(NC(=O)Cc3cccs3)[C@H]2SC1.[Na+] (stereo partly drawn) [Cephalothin, sodium 7-(2-thienylacetamido)-3-acetoxymethyl-3-cephem-4-carboxylate, reference compound]	> 100	1.56	1.56	> 100	3.13	> 100	> 100	12.5	25	> 100	3.13	0.20	1.56	0.39	> 100	100	12.5	> 100		
N=c1[nH]c(/C(=N/O)C(=O)NC2C(=O)N3C(C(=O)O)=C(CSc4cnn[nH]4)CSC23)cs1 (stereo not drawn) [Example 13, sodium 7-[2-(2-imino-4-thiazolin-4-yl)-2-hydroxyimino-acetamido]-3-(1,2,3-triazol-5-yl)thiomethyl-3-cephem-4-carboxylate (syn-isomer)]	1.56	0.05	≤ 0.012	0.78	0.10	50	0.20	0.10	0.39	0.20	0.05	0.78	0.10	0.78	12.5	0.78	0.20	25		
Cc1nsc(SCC2=C(C(=O)O)N3C(=O)C(NC(=O)/C(=N\O)c4csc(=N)[nH]4)C3SC2)n1 (stereo not drawn) [Example 14, sodium 7-[2-(2-imino-4-thiazoline-4-yl)-2-hydroxyimino-acetamido]-3-(3-methyl-1,2,4-thiadiazol-5-yl)thiomethyl-3-cephem-4-carboxylate (syn-isomer)]	0.78	0.20	0.024	0.78	0.39	1.56	0.39	0.39	0.39	0.20	0.20	0.39	0.10	0.78	6.25		0.78	6.25		
N=c1[nH]c(C(=NO)C(=O)NC2C(=O)N3C(C(=O)[O-])=C(C[n+]4ccc(C(N)=O)cc4)CSC23)cs1 (stereo not drawn) [Example 17, 7-[2-(2-imino-4-thiazolin-4-yl)-2-hydroxyimino-acetamido]-3-(4-carbamoylpyridiniummethyl)-3-cephem-4-carboxylate (syn-isomer)]	0.78	0.20	0.05	0.78	0.39	3.13	0.20	0.39	0.20	0.39	0.20	0.39	0.39	0.39	1.56	25	1.56	12.5		
N=c1[nH]c(/C(=N/O)C(=O)NC2C(=O)N3C(C(=O)O)=C(COC(N)=O)CSC23)cs1 (stereo not drawn) [Example 26, sodium 7-[2-(2-imino-4-thiazolin-4-yl)-2-hydroxyimino-acetamido]-3-carbamoyloxymethyl-3-cephem-4-carboxylate (syn-isomer)]	1.56	0.024	≤ 0.012	0.10	0.05	50	0.024	0.05	0.05	0.39	0.024	0.78	0.10	0.78	12.5	0.39	0.05	12.5		

— patent US4963542A, “Cephalosporin derivatives” (Takeda Chemical Industries, Ltd., priority 1976, dated 1990)
